Laboratory results from patent US20210277399A1, “Methods of Imaging and Tracking Nucleic Acids in Cells” (Emory University, priority 2020, published 2021).

How the values were obtained:
Neuro-2a cells [1] = experiment: Live cell imaging of mRNA in stress granules; assay type: cell-based, Mouse
Experimental: Experiments were performed to determine whether the MGD2/MGA system would be suitable for live cell imaging of endogenous mRNA localization and dynamics. Moreover, experiments were performed to determine whether one could simultaneously track the real-time localization properties of both RNA and proteins within a living cell. For this assay, Neuro-2a cells were co-transfected with expression plasmids for 1×MGA-mCDK6 and dual GFP-tagged G3BP1 protein. The expressed mRNA was labeled with MGD2 and photo crosslinked. The cells were then imaged to record the spatiotemporal features of both mRNA and protein in stress granules. […] Monitoring the signal intensity, the fluorescent signal generated from the MGD2 labeled granules was observed and remained consistent over >25 min of imaging.
After observing the motility and maturation of the granules, experiments were performed to determine whether one could also observe their dissolution. In mammalian cells, stress granules disassemble in the presence of small aliphatic molecules that disrupt weak hydrophobic interactions. Therefore, 1,6-hexanediol, an aliphatic alcohol commonly used for disassembly of stress granules was added. After arsenite-induced stress granule formation, the cells were incubated in 5% 1,6-hexanediol solution. The fluorescence signal of the labeled 1×MGA-mCDK6 was observed. […]

[2] = tested on: control mGFP mRNA that does not contain the aptamer sequence; experiment: Effect of UV-irradiation on fluorescence of MGD2 with control mRNA; assay type: binding; conditions: up to 15 minutes of UV-irradiation
Experimental: (§1) The effect of UV-irradiation on the fluorescence enhancement was investigated.
(§2) A solution of 30 μM of MGD2 was mixed with 4 μM of the corresponding mRNA in 1×PBS (1.54 mM potassium monobasic, 155.17 mM sodium chloride, and 2.71 mM sodium phosphate dibasic with pH=7.2) and incubated at room temperature for 20 min. For comparison, a solution of MGD2 without any RNA was also prepared in 1×PBS. The fluorescence of these solutions was measured using a BioTek Cytation™ 5 plate reader with ex=620±20 nm and em=680±20 nm. The average fluorescence value from replicate experiments was used to calculate fluorescence enhancement.

[3] = tested on: cellular RNA extracted from HeLa cells; experiment: Determination of MGD2 selectivity in cellular RNA (agarose gel); assay type: biochemical; conditions: 10 min UV
Experimental: To determine the selectivity of MGD2 labeling, 6MGA-mGFP (200 ng) was spiked in into cellular RNA extracted from HeLa cells (400 ng) in 1×PBS. […] After 10 min of UV irradiation, the sample was mixed with equal volume of 50% glycerol solution and heated to 70° C. to denature the RNA. This sample was loaded on to 1% agarose gel containing 1% v/v Clorox® bleach2 and Sybr Gold™. After running the gel for 1 h at a constant 100 V, the gel was frozen with dry ice for 10 min and imaged using GE Amersham Typhoon™. This freezing step enhanced the fluorescence output of the malachite green molecule.
Experiments were performed to determine whether this would create problematic background signal during imaging. […] The collective observations from these experiments served as guidelines for irradiation time and dye concentrations used in subsequent cellular labeling experiments.

6×MGA-mGFP = experiment: In vitro fluorescence enhancement of MGD2 with 6×MGA-mGFP mRNA; assay type: binding
Experimental: (§3) AcGFP mRNA appended with one or six copies of the aptamer sequence at the 5′ end, referred to as 1×MGA-mGFP and 6×MGA-mGFP, respectively, was transcribed.
as §2

[4] = Fluorescence of MGD2 without any RNA in 1×PBS; assay type: physicochemical; conditions: MGD2 without RNA in 1×PBS; 30 μM MGD2; ex=620±20 nm, em=680±20 nm
Experimental: as §2

1×MGA-mGFP = experiment: In vitro fluorescence enhancement of MGD2 with 1×MGA-mGFP mRNA; assay type: binding
Experimental: as §3, §1, §2

Neuro-2a cells [5] = experiment: Fixed-cell imaging of MGA-functionalized mCDK6 in stress granules; assay type: cell-based, Mouse
Description: Fixed cell experiments enable direct comparisons to FISH and validate labeling of the target RNA in cells. As a biological context for testing the labeling method, stress granules were selected. In response to stress conditions, cells form non-membrane-bound cytosolic […] RNA-protein assemblies to stall the translation of mRNA until the cells are no longer under stress. While most mRNAs can be concentrated to stress granules, different mRNAs have vastly distinct localization efficiencies. Using FISH, experiments indicate that the CDK6 mRNA is highly enriched in stress granules of mammalian cells CDK6 was used as a model system to fluorescently label and image the unique distribution pattern of the mRNA. Both the 6× and 1×MGA sequences were inserted at the 5′ end of the transcript, and the construct was placed under the control of the cytomegalovirus (CMV) promoter (FIG. 2A). Mouse neuroblastoma Neuro-2a cells were then transfected with these plasmids and incubated with 30 μM MGD2 for 20 min. The cells were then irradiated using 365 nm UV light to allow for covalent labeling of the aptamer. The media was replaced to washout excess dye, and cell stress conditions were induced by 45 min of arsenite exposure, a well characterized paradigm to induce formation of stress granules. Following fixation and immunofluorescence labeling of the stress granule marker protein (G3BP1), the cells were imaged using confocal microscopy.
To validate that the fluorescence signal observed was arising from labeling of the target CDK6 mRNA, the Neuro-2a cells were simultaneously incubated with FISH probes complementary to the CDK6 sequence but bearing a spectrally orthogonal fluorophore. This experiment also enabled us to directly compare the sensitivity of the MGA/MGD2 system to the commonly used FISH technique for RNA labeling in fixed cells. Following arsenite stress, MGD2 labeling, and cell fixation, the cells were incubated with our custom FISH probes. […] That may be because during FISH labeling, the fluorescent probe is hybridized after the RNA of interest is localized to granules. […]

[6] = 6MGA-mGFP 200 ng in 400 ng HeLa RNA, MGD2 50 μM
[7] = 6×MGA-mGFP in the presence of MGD2
[8] = 1×MGA-mGFP in the presence of MGD2

SMILES | effect on RNA granules (Neuro-2a cells [1]; 5% 1,6-hexanediol, labeled 1×MGA-mCDK6) | incubation time after which signal from the protein granules disappeared (Neuro-2a cells [1]; 5% hexanediol, after arsenite-induced stress granule formation) | fluorescence enhancement with control mRNA [2] | labeling of aptamer functionalized mRNA spiked into cellular RNA [3, 6] | labeling of cellular RNA [3, 6] | labeling of other cellular RNAs (bands in the MG channel) ([3]; MGD2 30 μM with 6×MGA-mGFP in presence of cellular RNA) | emission maximum (6×MGA-mGFP; [7]) | excitation maximum (6×MGA-mGFP; [7]) | fluorescence enhancement (6×MGA-mGFP; MGD2 bound to 6×MGA-mGFP, prior to UV-irradiation) | fluorescence output (mean) [4] | emission maximum (1×MGA-mGFP; [8]) | excitation maximum (1×MGA-mGFP; [8]) | fluorescence enhancement after UV irradiation (1×MGA-mGFP; 1×MGA-mGFP, after 15 minutes of UV irradiation (stabilized)) | fluorescence enhancement (1×MGA-mGFP; MGD2 bound to 1×MGA-mGFP, prior to UV-irradiation) | difference in fluorescence intensity of cytoplasmic mRNA granules, 1×MGA versus 6×MGA (Neuro-2a cells [5]; 1×MGA reduced versus 6×MGA-functionalized mRNA) | sensitivity of RNA detection compared with FISH (Neuro-2a cells [5]; 1×MGA- and 6×MGA-functionalized mRNAs, FISH probes complementary to CDK6) | labeling in control cells (Neuro-2a cells [5]; cells transfected with CDK6 lacking the MGA sequence, MGD2 and UV irradiation)
OCCCCCCO [1,6-hexanediol] | most of the RNA granules exhibited a more sustained structural integrity | 7 min | – | – | – | – | – | – | – | – | – | – | – | – | – | – | –
CN(C)c1ccc(C(=C2C=CC(=[N+](C)C)C=C2)c2ccc(NC(=O)CCC3(C)N=N3)cc2)cc1 [MGD2, N-(4-((4-(dimethylamino)phenyl)(4-(3-(3-methyl-3H-diazirin-3-yl) Propan amido)phenyl)methylene)cyclohexa-2,5-dien-1-ylidene)-N-methylmethanaminium Chloride] | – | – | did not result in any detectable fluorescence enhancement | selectively labeled the aptamer functionalized mRNA | did not have any detectable labeling of cellular RNA | no bands from labeling of other cellular RNAs | 660 nm | 625 nm | > 1000 fold | 6.25 | 660 nm | 625 nm | approximately 140 fold | 251 fold | ~2 fold | higher sensitivity for RNA detection than FISH | did not show any labeling
